Test results as given in patent publication US8173636B2, “Hydroxylthienoquinolones and related compounds as anti-infective agents” (Achillion Pharmaceuticals, Inc., priority 2009, dated 2012).
Converted amounts (≈) assume the structure as drawn. Read-outs that look alike come from different tables or passages of the source.

How the values were obtained:
[1] = system: fluoroquinolone-resistant S. aureus ATCC 700699; test: Minimum inhibitory concentration (MIC) assay, broth microdilution, MRSA; type: cell-based; details: Staphylococcus aureus
Experimental: (§1) The antimicrobial activity of the compounds of the invention may be evaluated by a number of methods, including the following visual minimum inhibitory concentration (MIC) assay. This assay determines the minimum concentration of compound required to inhibit growth of a bacterial strain.
(§2) Whole-cell antibacterial activity is determined by broth microdilution using conditions recommended by the NCCLS (see National Committee for Clinical Laboratory Standards. 2001. Performance standards for antimicrobial susceptibility testing: 11th informational supplement. Vol. 21, no. 1, M100-S11. National Committee for Clinical Laboratory Standards, Wayne, Pa.). Test compounds are dissolved in DMSO and diluted 1:50 in Mueller-Hinton II broth (Becton-Dickinson) to produce a 256 μg/ml stock solution. In a 96-well microtiter plate, the compound solution is serially two-fold diluted in Mueller-Hinton II broth. After the compounds are diluted, a 50 μl aliquot of the test organism (˜1×10^6 cfu/mL) is added to each well of the microtiter plate. The final test concentrations ranges from 0.125-128 μg/mL. Inoculated plates are incubated in ambient air at 37° C. for 18 to 24 hours. The organisms selected for testing included laboratory strains S. aureus ATCC 29213 and E. coli ATCC 25922 (strains purchased from American Type Culture Collection, Manassas, Va.) m, S. aureus FQR700699, and Paeruginosa 27853. The minimum inhibitory concentration (MIC) is determined as the lowest concentration of compound that inhibited visible growth of the test organism.

Hep2 = test: Cell viability staining with Alamar Blue (compound cytotoxicity); type: cell-based, human; details: Table II, comparison of R2 acetyl vs cyano
Experimental: To determine whether the microcidal effect observed against S. aureus and E. coli is specific to bacterial cells, compounds are screened for cell viability effects on several human cell types. Optimal cell density is first determined by plating cells in a 96-well plate standard sterile tissue culture plates in 100 μl media, 10% FBS at six cell densities from 500 cells/well to 15,000 cells/well. A cell free well containing only media is used as a control. Cells are incubated at 37° C. in a 5% CO2 incubator for 24 hours. 10% culture volume (10 ul) of Alamar Blue (Biosource, DAL1100, 100 mL) is then added. Cells are incubated at 37° C. in a 5% CO2 incubator and read in a Victor V plate reader, 544 nm excitation, 590 nm emission, at 3, 4, and 24 hours after the addition of Alamar Blue. The cell number vs. change in fluorescence is plotted to determine linearity of signal vs. cell number. The optimal density varies between 500-15,000 cells/well depending on the specific cell type. The optimal density is selected based on the highest number of cells that is still in the linear response range. Cells are plated at optimal cell density in a standard sterile tissue culture 96 well plate, and incubated at 37° C., O/N in a 5% CO2 incubator. 12 to 48 hours post-plating media is removed. The cells are washed 1 or 2 times with 1×PBS and replaced with fresh media containing the test compound in 1% DMSO. 24 to 72 hours after addition of compound, the media is removed, and the cells washed 1 to 2 times with 1×PBS. Fresh media containing 1/10 volume of Alamar Blue is then added. Plates are incubated 4 hours at 37° C. in a 5% CO2 incubator and read in a Victor V plate reader, 544 nm excitation, 590 nm emission. Compounds are diluted to 20 micromolar in 1% DMSO and media and screened in duplicate to obtain single concentration cytotoxicity data. Eight concentration points from 0.78 micromolar to 100 micromolar, run in duplicate, are used to determine cyclotoxicity CC50 values. Cells with 1% DMSO and media are used as a negative control, compounds having a known CC50 against a particular cell type are used as positive controls. The change in fluorescence vs. concentration of test compound is plotted to determine the cytotoxicity of the compound.

S. aureus ATCC 29213 = test: Minimum inhibitory concentration (MIC) assay, broth microdilution, MSSA; type: cell-based; details: Staphylococcus aureus, Table I
Experimental: as §1, §2

[2] = Table II, comparison of R2 acetyl vs cyano, read-out: MRSA
[3] = fluoroquinolone-resistant S. aureus ATCC 700699, Table I, read-out: MRSA MIC

| SMILES | MIC [1, 2] | MIC (S. aureus ATCC 29213) | MIC [1, 3] | Cytoxicity (Hep2) |
| --- | --- | --- | --- | --- |
| COc1c(N2CCNCC2)c(F)cc2c(=O)c3c(n(C4CC4)c12)SC(C#N)C3=O (stereo not shown) [Cmp 9, 9-cyclopropyl-6-fluoro-3-hydroxyl-8-methoxy-4-oxo-7-(piperazin-1-yl)-4,9-dihydrothieno[2,3-b]quinoline-2-carbonitrile] | 0.75 µg/mL (≈ 1.81 µM) | – | – | 9 µM |
| COc1c(N2CC[C@@H](C(C)(C)N)C2)c(F)cc2c(=O)c3c(n(C4CC4)c12)SC(C#N)C3=O (stereo partly drawn) [Cmp 10, (R)-7-(3-(2-aminopropan-2-yl)pyrrolidin-1-yl)-9-cyclopropyl-6-fluoro-3-hydroxyl-8-methoxy-4-oxo-4,9-dihydrothieno [2,3-b]quinoline-2-carbonitrile] | 0.09 µg/mL (≈ 0.197 µM) | – | – | 2 µM |
| COc1c(-c2cn[nH]c2)c(F)cc2c(=O)c3c(n(C4CC4)c12)SC(C#N)C3=O (stereo not shown) [Cmp 51, 9-cyclopropyl-6-fluoro-8-methoxy-3,4-dioxo-7-(1H-pyrazol-4-yl)-2,3,4,9-tetrahydrothieno[2,3-b]quinoline-2-carbonitrile] | – | 0.03 µg/mL (≈ 0.0757 µM) | 0.5 µg/mL (≈ 1.26 µM) | – |
| COc1c(N2CCNC(C(N)=O)C2)c(F)cc2c(=O)c3c(n(C4CC4)c12)SC(C#N)C3=O (stereo not shown) [Cmp 52, 4-(2-cyano-9-cyclopropyl-6-fluoro-8-methoxy-3,4-dioxo-2,3,4,9-tetrahydrothieno[2,3-b]quinolin-7-yl) piperazine-2-carboxamide] | – | 0.25 µg/mL (≈ 0.546 µM) | 2 µg/mL (≈ 4.37 µM) | – |
| COc1c(N2CCCC(c3ncn[nH]3)C2)c(F)cc2c(=O)c3c(n(C4CC4)c12)SC(C#N)C3=O (stereo not shown) [Cmp 53, 7-(3-(1H-1,2,4-triazol-5-yl)piperidin-1-yl)-9-cyclopropyl-6-fluoro-8-methoxy-4-dioxo-2,3,4,9-tetrahydrothieno [2,3-b]quinoline-2-carbonitrile] | – | 0.13 µg/mL (≈ 0.271 µM) | 2 µg/mL (≈ 4.16 µM) | – |
| COc1c(N2CCC[C@H](N)C2)c(F)cc2c(=O)c3c(O)c(C#N)sc3n(C3CC3)c12 [Cmp 54, (S)-7-(3-aminopiperidin-1-yl)-9-cyclopropyl-6-fluoro-3-hydroxyl-8-methoxy-4-oxo-4,9-dihydrothieno[2,3-b] quinoline-2-carbonitrile] | – | 0.13 µg/mL (≈ 0.303 µM) | 0.5 µg/mL (≈ 1.17 µM) | – |
| COc1c(N2CCN(CC#N)CC2)c(F)cc2c(=O)c3c(O)c(C#N)sc3n(C3CC3)c12 [Cmp 55, 7-(4-(cyanomethyl)piperazin-1-yl)-9-cyclopropyl-6-fluoro-3-hydroxyl-8-methoxy-4-oxo-4,9-dihydrothieno [2,3-b]quinoline-2-carbonitrile] | – | 0.06 µg/mL (≈ 0.132 µM) | 0.5 µg/mL (≈ 1.1 µM) | – |
| COc1c(N2CCNCC2)c(F)cc2c(=O)c3c(O)c(C(C)=O)sc3n(C3CC3)c12 [Cmp 57, 2-acetyl-9-cyclopropyl-6-fluoro-3-hydroxyl-8-methoxy-7-(piperazin-1-yl)thieno[2,3-b]quinolin-4(9H)-one] | 1 µg/mL (≈ 2.32 µM) | 0.25 µg/mL (≈ 0.579 µM) | 1 µg/mL (≈ 2.32 µM) | 57 µM |
| COc1c(N2CC[C@@H](C(C)(C)N)C2)c(F)cc2c(=O)c3c(O)c(C(C)=O)sc3n(C3CC3)c12 [Cmp 58, (R)-2-acetyl-7-(3-(2-aminopropan-2-yl)pyrrolidin-1-yl)-9-cyclopropyl-6-fluoro-3-hydroxyl-8-methoxythieno [2,3-b]quinolin-4(9H)-one] | 0.25 µg/mL (≈ 0.528 µM) | 0.13 µg/mL (≈ 0.275 µM) | 0.25 µg/mL (≈ 0.528 µM) | 20 µM |
| COc1c(N2CC[C@@H](CN)C2)c(F)cc2c(=O)c3c(O)c(C#N)sc3n(C3CC3)c12 [Cmp 59, (S)-7-(3-(aminomethyl)pyrrolidin-1-yl)-9-cyclopropyl-6-fluoro-3-hydroxyl-8-methoxy-4-oxo-dihydrothieno[2,3-b] quinoline-2-carbonitrile] | 0.03 µg/mL (≈ 0.07 µM) | 0.02 µg/mL (≈ 0.0467 µM) | < 0.03 µg/mL | 0.06 µM |

Continued, in another order:

| MIC [1, 2] | MIC (S. aureus ATCC 29213) | MIC [1, 3] | SMILES | Cytoxicity (Hep2) |
| --- | --- | --- | --- | --- |
| 0.06 µg/mL (≈ 0.135 µM) | 0.06 µg/mL (≈ 0.135 µM) | 0.06 µg/mL (≈ 0.135 µM) | COc1c(N2CC[C@@H](CN)C2)c(F)cc2c(=O)c3c(O)c(C(C)=O)sc3n(C3CC3)c12 [Cmp 60, (S)-2-acetyl-7-(3-(aminomethyl)pyrrolidin-1-yl)-9-cyclopropyl-6-fluoro-3-hydroxyl-8-methoxythieno [2,3-b]quinolin-4(9H)-one] | 11 µM |
| – | 0.13 µg/mL (≈ 0.291 µM) | 0.5 µg/mL (≈ 1.12 µM) | COc1c(N2CC[C@@H](CN)C2)c(F)cc2c(=O)c3c(O)c(C(N)=O)sc3n(C3CC3)c12 [Cmp 61, (S)-7-(3-(aminomethyl)pyrrolidin-1-yl)-9-cyclopropyl-6-fluoro-3-hydroxyl-8-methoxy-4-oxo-4,9-dihydrothieno [2,3-b]quinoline-2-carboxamide] | – |
| – | 0.5 µg/mL (≈ 1.03 µM) | 1 µg/mL (≈ 2.05 µM) | CCC(=O)c1sc2c(c1O)c(=O)c1cc(F)c(N3CC[C@@H](C(C)(C)N)C3)c(OC)c1n2C1CC1 [Cmp 62, (R)-7-(3-(2-aminopropan-2-yl)pyrrolidin-1-yl)-9-cyclopropyl-6-fluoro-3-hydroxyl-8-methoxy-2-propionylthieno [2,3-b]quinolin-4(9H)-one] | – |
| 0.13 µg/mL (≈ 0.294 µM) | 0.03 µg/mL (≈ 0.0678 µM) | 0.13 µg/mL (≈ 0.294 µM) | COc1c(N2CCCC(CN)C2)c(F)cc2c(=O)c3c(O)c(C#N)sc3n(C3CC3)c12 (stereo not shown) [Cmp 63, 7-(3-(aminomethyl)piperidin-1-yl)-9-cyclopropyl-6-fluoro-3-hydroxyl-8-methoxy-4-oxo-dihydrothieno[2,3-b] quinoline-2-carbonitrile] | 0.4 µM |
| 0.25 µg/mL (≈ 0.544 µM) | 0.13 µg/mL (≈ 0.283 µM) | 0.25 µg/mL (≈ 0.544 µM) | COc1c(N2CCCC(CN)C2)c(F)cc2c(=O)c3c(O)c(C(C)=O)sc3n(C3CC3)c12 (stereo not shown) [Cmp 64, 2-acetyl-7-(3-(aminomethyl)piperidin-1-yl)-9-cyclopropyl-6-fluoro-3-hydroxyl-8-methoxythieno [2,3-b]quinolin-4(9H)-one] | 19 µM |
| – | 0.5 µg/mL (≈ 1.09 µM) | 2 µg/mL (≈ 4.34 µM) | COc1c(N2CCCC(CN)C2)c(F)cc2c(=O)c3c(O)c(C(N)=O)sc3n(C3CC3)c12 (stereo not shown) [Cmp 65, 7-(3-(aminomethyl)piperidin-1-yl)-9-cyclopropyl-6-fluoro-3-hydroxyl-8-methoxy-4-oxo-4,9-dihydrothieno [2,3-b]quinoline-2-carboxamide] | – |
| – | 0.25 µg/mL (≈ 0.511 µM) | 0.5 µg/mL (≈ 1.02 µM) | COc1c(N2CCCC(=C(F)CN)C2)c(F)cc2c(=O)c3c(O)c(C(C)=O)sc3n(C3CC3)c12 [Cmp 66, 2-acetyl-7-(3-(2-amino-1-fluoroethylidene)piperidin-1-yl)-9-cycloprop-6-fluoro-3-hydroxyl-8-methoxythieno[2,3-b] quinolin-4(9H)-one] | – |
